# From patent US20150025077A1 (COYOTE PHARMACEUTICALS, INC., priority 2012, published 2015)
# Tests used:
# [1] = test system: HSP70; test: HSP70 expression in cortex and hippocampus in vivo, western blot; parameters: species or system rat; HSP70 Expression (average, western blot): scale not given here; settings: for delta HSP70 expression, CNS-102 minus PBS: 12 mg/kg oral
# Protocol: The time course of protein expression, as measured by western blot for HSP70, was determined in triplicate for hippocampus, and cortex tissue samples taken from each of 5 animals per group at each of four time points (24, 48, 72, and 96 h) after treatment with either PBS or 12 mg/kg CNS-102, administered orally. The average expression for each treatment group is calculated at each time point for each tissue using PROC MIXED in SAS and are tabulated, along with the difference (delta) between treatment averages and a p-value comparing the difference to zero, below.
# [2] = test system: HSP70; test: HSP70 gene expression in rat brain tissue, qRT-PCR; format: in vivo; settings: 12 mg/kg oral
# Protocol: (§1) […] Expression of selected HSPs was detected using qRT-PCR with expression of the GAPDH gene used as the control. To represent the effect of CNS-102 on HSP expression, mean fold change is calculated as CNS-102 treated/PBS treated for each HSP at each time point.
# [3] = test system: SOD1 mice; test: CatWalk gait analysis in SOD1 mice; format: in vivo, mouse; parameters: Hind stride length, Mean/average: unit not given beside the values
# Excerpt: Prior to onset, there was little to no difference between the transgenic and wildtype groups. Transgenic animals tended to rely more on front paws for movement as weakness and paralysis in the hind paws progressed. This began to show around timepoint P100, coinciding with the expected onset of disease. This impairment was seen through changes in front and hind paw step cycle, print area, mean intensity, and base of support.
# [4] = test system: Sprague Dawley rats; test: Kainic acid stereotactic hippocampus injection model, fraction of cells damaged; format: in vivo, rat; settings: for Difference of mean fraction damaged to pooled PBS / Mean fraction of cells damaged in the hippocampus: 12 mg/kg oral; for Mean fraction of cells damaged in the hippocampus: pooled PBS 0.187
# Protocol: CNS-102 was administered orally to Sprague Dawley rats at 12 mg/kg. After dosing, KA was stereotactically injected into the hippocampus at 24, 48, 72, 96 and 168 hours to induce neuron damage. After 24 h, hippocampus tissue was collected, stained, and imaged. The scans were analyzed by Image J to calculate the fraction of cells having KA-induced damage. Average fraction damaged in the hippocampus from ten animals for each treatment (PBS vs. 12 mg/kg CNS-102) by time (24, 48, 72, 96 and 168 hours) combination was estimated with PROC MIXED in SAS. Comparisons of the CNS-102 treatment groups to the pooled PBS treatment at the different times can be made, giving the results tabulated below.
# The fraction of cells damaged in the kainic acid model was determined on 130 rats, each receiving one dose of CNS-102 at either 0, 1, 3, 6, 12 or 24 mg/kg. PBS was used for dosing at 0 mg/kg. The linear model of the log10 percent damage versus concentration is graphically shown FIG. 5.
# After dosing, KA was stereotactically injected into the hippocampus at 72 hours to induce neuron damage. After 24 h, hippocampus tissue was collected, stained, and imaged. The scans were analyzed by Image J to calculate the fraction of cells having KA-induced damage.
# The indicated compounds or vehicle control were orally dosed to Sprague-Dawley rats, and Kainic acid was injected. After dosing, KA was stereotactically injected into the hippocampus at 72 hours to induce neuron damage. After 24 h, hippocampus tissue was collected, stained, and imaged. The scans were analyzed by Image J to calculate the fraction of cells having KA-induced damage. Neurons damaged by Kainic acid (mean of hippocampus CA3 neurons damaged) were quantified.
# [5] = test system: HSP60; test: HSP60 gene expression in rat brain tissue, qRT-PCR; format: in vivo; settings: 12 mg/kg oral
# Protocol: as §1
# [6] = test system: Murine neuro2A neuroblastoma cells; test: Neurite outgrowth of neuro2A cells with GGTI-298 (Example 30); format: cell-based, mouse
# Protocol: Differentiation was induced and cells incubated with geranylgeranyl transferase I inhibitor, GGTI-298. After 24 h digital images were taken and neurite outgrowth was quantified. The comparisons of the neuroprotective effect of these three compounds are shown below.
# The estimated mean log10 counts, from five replicate wells for each treatment group were calculated by PROC GLM in SAS assuming a pooled estimate of variation.
# The estimated mean log 10 counts from five replicate wells for each treatment group were calculated by PROC GLM in SAS assuming a pooled estimate of variation.
# Differences in mean log(counts) between treatments for each concentration were calculated using PROC GLM in SAS. The p-value given is for the comparison of the estimated difference to zero, the expected difference value for no treatment effect. The anti-log of the differences represent the estimated ratio of counts (relative effect on inhibition) and are tabulated below along with the lower and upper 95% confidence intervals.
# [7] = 10 nM, CNS-101/CNS-102 experiment
# [8] = 100 nM, CNS-101/CNS-102 experiment
# [9] = 100 nM, CNS-102/CNS-103 experiment
# [10] = 1000 nM, CNS-101/CNS-102 experiment
# [11] = 1000 nM, CNS-102/CNS-103 experiment
# [12] = 10000 nM, CNS-101/CNS-102 experiment
smiles,measurement,setting,value
CC(=O)CC/C=C(\C)CC/C=C(\C)CC/C=C(\C)CCC=C(C)C [CNS-102],"HSP70 Expression (average, western blot)","[1]; Cortex, 24 hours after 12 mg/kg oral, PBS −0.256",−0.016
same,"delta HSP70 expression, CNS-102 minus PBS","[1]; Cortex, 24 hours",0.24
same,"HSP70 Expression (average, western blot)","[1]; Cortex, 48 hours after 12 mg/kg oral, PBS −0.56",−0.45
same,"delta HSP70 expression, CNS-102 minus PBS","[1]; Cortex, 48 hours",0.11
same,"HSP70 Expression (average, western blot)","[1]; Cortex, 72 hours after 12 mg/kg oral, PBS 0.01",0.14
same,"delta HSP70 expression, CNS-102 minus PBS","[1]; Cortex, 72 hours",0.13
same,"HSP70 Expression (average, western blot)","[1]; Cortex, 96 hours after 12 mg/kg oral, PBS −0.15",0.04
same,"delta HSP70 expression, CNS-102 minus PBS","[1]; Cortex, 96 hours",0.19
same,"HSP70 Expression (average, western blot)","[1]; Hippocampus, 24 hours after 12 mg/kg oral, PBS −0.072",−0.159
same,"delta HSP70 expression, CNS-102 minus PBS","[1]; Hippocampus, 24 hours",−0.088
same,"HSP70 Expression (average, western blot)","[1]; Hippocampus, 48 hours after 12 mg/kg oral, PBS −0.18",0.02
same,"delta HSP70 expression, CNS-102 minus PBS","[1]; Hippocampus, 48 hours",0.2
same,"HSP70 Expression (average, western blot)","[1]; Hippocampus, 72 hours after 12 mg/kg oral, PBS −0.2",−0.06
same,"delta HSP70 expression, CNS-102 minus PBS","[1]; Hippocampus, 72 hours",0.14
same,"HSP70 Expression (average, western blot)","[1]; Hippocampus, 96 hours after 12 mg/kg oral, PBS −0.49",−0.32
same,"delta HSP70 expression, CNS-102 minus PBS","[1]; Hippocampus, 96 hours",0.17
same,"HSP70 mean fold change (CNS-102 treated/PBS treated), mean ± SD",[2]; 24 h,1.18 ± 0.01
same,"HSP70 mean fold change (CNS-102 treated/PBS treated), mean ± SD",[2]; 48 h,1.48 ± 0.02
same,"HSP70 mean fold change (CNS-102 treated/PBS treated), mean ± SD",[2]; 72 h,1.81 ± 0.01
same,"HSP70 mean fold change (CNS-102 treated/PBS treated), mean ± SD",[2]; 96 h,1.58 ± 0.03
same,"Run Duration, CNS-102 - vehicle difference of averages",[3]; P120,−1.68
same,"Stride Length, CNS-102 - vehicle difference of averages",[3]; P120,1.46
same,"Swing Speed, CNS-102 - vehicle difference of averages",[3]; P120,14.58
same,"Run Duration, Mean/average","[3]; P-42, SOD1/Vehicle 1.484746201",1.685
same,"Hind stride length, Mean/average","[3]; P-42, SOD1/Vehicle 6.359471205",6.082
same,"Swing speed, Mean/average","[3]; P-42, SOD1/Vehicle 45.8515272",41.18
same,"Run Duration, Mean/average","[3]; P-124 (+/−) 3, SOD1/Vehicle 3.461605345",1.976
same,"Hind stride length, Mean/average","[3]; P-124 (+/−) 3, SOD1/Vehicle 3.607909383",5.476
same,"Swing speed, Mean/average","[3]; P-124 (+/−) 3, SOD1/Vehicle 23.93413455",35.63
same,Difference of mean fraction damaged to pooled PBS,[4]; KA at 24 hours,0.005
same,Difference of mean fraction damaged to pooled PBS,[4]; KA at 48 hours,−0.064
same,Difference of mean fraction damaged to pooled PBS,[4]; KA at 72 hours,−0.092
same,Difference of mean fraction damaged to pooled PBS,[4]; KA at 96 hours,−0.056
same,Difference of mean fraction damaged to pooled PBS,[4]; KA at 168 hours,−0.026
same,Mean fraction of cells damaged in the hippocampus,[4]; KA injected at 24 hours,0.193
same,Mean fraction of cells damaged in the hippocampus,[4]; KA injected at 48 hours,0.123
same,Mean fraction of cells damaged in the hippocampus,[4]; KA injected at 72 hours,0.096
same,Mean fraction of cells damaged in the hippocampus,[4]; KA injected at 96 hours,0.131
same,Mean fraction of cells damaged in the hippocampus,[4]; KA injected at 168 hours,0.162
same,Mean of Hippocampus CA3 Neurons Damaged,"[4]; 24 mg/Kg rat oral, KA at 72 hours",19.8182 Arbitrary units
same,minimal effective dose,"[4]; one dose of 0, 1, 3, 6, 12 or 24 mg/kg, kainic acid model",12 mg/kg
same,timepoint of maximal protection effect,[4]; single dose of 12 mg/kg,72 h
same,"HSP60 mean fold change (CNS-102 treated/PBS treated), mean ± SD",[5]; 24 h,1.26 ± 0.07
same,"HSP60 mean fold change (CNS-102 treated/PBS treated), mean ± SD",[5]; 48 h,0.89 ± 0.08
same,"HSP60 mean fold change (CNS-102 treated/PBS treated), mean ± SD",[5]; 72 h,1.72 ± 0.07
same,"HSP60 mean fold change (CNS-102 treated/PBS treated), mean ± SD",[5]; 96 h,1.57 ± 0.16
same,"Ratio % of neurite outgrowth, CNS-102 to CNS-101",[6]; 10 nM,113.6%
same,Protection %,[6]; [7],16.6%
same,Median Counts (cells with neurite outgrowth),"[6]; 10 nM, CNS-101/CNS-102 experiment, no inhibition 95.5, PBS 21.5",33.8
same,ratio of counts relative to no inhibition,[6]; [7],0.354
same,"Ratio % of neurite outgrowth, CNS-102 to CNS-101",[6]; 100 nM,112.1%
same,"Ratio % of neurite outgrowth, CNS-102 to CNS-103",[6]; 100 nM,114.3%
same,Protection %,[6]; [8],29.6%
same,Median Counts (cells with neurite outgrowth),"[6]; 100 nM, CNS-101/CNS-102 experiment, no inhibition 95.5, PBS 21.5",43.4
same,ratio of counts relative to no inhibition,[6]; [8],0.454
same,Protection %,[6]; [9],35.9%
same,Median Counts (cells with neurite outgrowth),"[6]; 100 nM, CNS-102/CNS-103 experiment, no inhibition 60.3, PBS 18.5",33.5
same,ratio of counts relative to no inhibition,[6]; [9],0.556
same,"Ratio % of neurite outgrowth, CNS-102 to CNS-101",[6]; 1000 nM,122.7%
same,"Ratio % of neurite outgrowth, CNS-102 to CNS-103",[6]; 1000 nM,83.0%
same,Protection %,[6]; [10],39.9%
same,Median Counts (cells with neurite outgrowth),"[6]; 1000 nM, CNS-101/CNS-102 experiment, no inhibition 95.5, PBS 21.5",51.0
same,ratio of counts relative to no inhibition,[6]; [10],0.534
same,Protection %,[6]; [11],12.7%
same,Median Counts (cells with neurite outgrowth),"[6]; 1000 nM, CNS-102/CNS-103 experiment, no inhibition 60.3, PBS 18.5",23.8
same,ratio of counts relative to no inhibition,[6]; [11],0.395
same,"Ratio % of neurite outgrowth, CNS-102 to CNS-101",[6]; 10000 nM,137.8%
same,Protection %,[6]; [12],22.6%
same,Median Counts (cells with neurite outgrowth),"[6]; 10000 nM, CNS-101/CNS-102 experiment, no inhibition 95.5, PBS 21.5",38.2
same,ratio of counts relative to no inhibition,[6]; [12],0.400
same,maximum protection,[6]; CNS-101/CNS-102 experiment (FIG. 4A),~40%
same,maximum protection,[6]; CNS-102/CNS-103 experiment (FIG. 4B),~36%
